Results: patent US10428041B2, “Pyridyl reverse sulfonamides for HBV treatment” (Novira Therapeutics, Inc., priority 2014, dated 2019)

Each compound was assayed on HBV replication in HepG2-2.2.15 cells (assay: Inhibition of HBV replication dot-blot assay). Conditions: Hepatitis B virus, 144 h, reduction in HBV DNA levels, six days.
Format: cell-based
Protocol: Compounds active in the HBV assembly assay are tested for their activity and toxicity in cellular assay. In the first anti-viral assay, the ability of compounds to inhibit HBV replication in an HBV-producing hepatoma cell line using the dot-blot method is evaluated.
(§1) Briefly, confluent monolayers of HepG2-2.2.15 cells are incubated with complete medium containing various concentrations of a test compound. Three days later, the culture medium is replaced with fresh medium containing the appropriately diluted test compound. Six days following the initial administration of the test compound, the cell culture supernatant is collected, and cell lysis is performed. The samples are applied onto Nylos membranes and DNA is immobilized to the membrane by UV cross-linking. After pre-hybridization, the HBV probe is added and the hybridization is performed overnight. The membranes are exposed to the KODAK films; antiviral activity is calculated from the reduction in HBV DNA levels (EC50). The EC50 for antiviral activity is calculated from the dose response curves of active compounds. Assay performance over time is monitored by the use of the standard positive control compounds ETV, BAY 41-4109, and HAP-1.
Selected compounds are tested for their activity and toxicity in cellular assay. In the first anti-viral assay, the ability of compounds to inhibit HBV replication in an HBV-producing hepatoma cell line using the dot-blot method is evaluated.
as §1, with “Confluent monolayers” for “Briefly, confluent monolayers”, “lysis was” for “lysis is”

Question: For O=C(Nc1ccc(F)c(Cl)c1)c1ccnc(NS(=O)(=O)CC2CC2)c1 [Compound 36, N-(3-Chloro-4-fluorophenyl)-2-(cyclopropylmethylsulfonamido)isonicotinamide], which EC50 is on record?
Answer: < 10 µM

Question: How did the EC50 turn out when CS(=O)(=O)Nc1cc(C(=O)Nc2ccc(F)c(Cl)c2)ccn1 [Compound 35, N-(3-Chloro-4-fluorophenyl)-2-(methylsulfonamido)isonicotinamide] was run?
Answer: < 10 µM

Question: With O=C(Nc1ccc(F)c(Cl)c1)c1ccnc(NS(=O)(=O)CCc2ccccc2)c1 [Compound 21, N-(3-Chloro-4-fluorophenyl)-2-(2-phenylethylsulfonamido)isonicotinamide] as the compound, how does the EC50 read?
Answer: < 10 µM

Question: How did the EC50 turn out when O=C(Nc1ccc(F)c(Cl)c1)c1ccnc(NS(=O)(=O)CCC2CC2)c1 [Compound 23, N-(3-Chloro-4-fluorophenyl)-2-(2-cyclopropylethylsulfonamido)isonicotinamide] was run?
Answer: < 10 µM
